According to ChEMBL document CHEMBL1137102, “Synthesis and evaluation of 2-amino-8-alkoxy quinolines as MCHr1 antagonists. Part 1” (Bioorg Med Chem Lett, 2004):
pIC50: −log10 of the molar value.

What was measured:
[1] = molecular target: T1, Melanin-concentrating hormone receptor 1 (Homo sapiens, UniProt Q99705); test: Concentration required to inhibit binding of [125I]MCH radioligand to human melanin-concentrating hormone receptor 1 in IMR-32 I3.4.2 cell membranes
[2] = molecular target: T1, Melanin-concentrating hormone receptor 1; test: Concentration required to inhibit 50% of melanin-concentrating hormone induced [Ca2+] flux in IMR-32 cells measured by using a fluorometric imaging plate reader; type: functional, cell-based
[3] = Half life in brain was determined at the peroral dose of 10 mg/kg in diet-induced obese (DIO) mice; type: ADME, organism-based; design: dose 10 mg/kg, route oral; conditions: mouse, po
[4] = Half life in plasma was determined at the peroral dose of 10 mg/kg in diet-induced obese (DIO) mice; type: ADME, organism-based; design: dose 10 mg/kg, route oral; conditions: mouse, po
[5] = Area under curve in plasma was determined at the peroral dose of 10 mg/kg in diet-induced obese (DIO) mice; unit may be (ng.h/mL or ng. h/g); type: ADME, organism-based; design: dose 10 mg/kg, route oral; conditions: mouse, in vivo, po
[6] = Area under curve in brain was determined at the peroral dose of 10 mg/kg in diet-induced obese (DIO) mice; unit may be (ng.h/mL or ng. h/g); type: ADME, organism-based; design: dose 10 mg/kg, route oral; conditions: mouse, in vivo, po
[7] = Maximum concentration in plasma was determined at the peroral dose of 10 mg/kg in diet-induced obese (DIO) mice; unit may be (ng/mL or ng/g); type: ADME, organism-based; design: dose 10 mg/kg, route oral; conditions: mouse, po
[8] = Maximum concentration in brain was determined at the peroral dose of 10 mg/kg in diet-induced obese (DIO) mice; unit may be (ng/mL or ng/g); type: ADME, organism-based; design: dose 10 mg/kg, route oral; conditions: mouse, po

T1 sequence (Q99705 whole entry): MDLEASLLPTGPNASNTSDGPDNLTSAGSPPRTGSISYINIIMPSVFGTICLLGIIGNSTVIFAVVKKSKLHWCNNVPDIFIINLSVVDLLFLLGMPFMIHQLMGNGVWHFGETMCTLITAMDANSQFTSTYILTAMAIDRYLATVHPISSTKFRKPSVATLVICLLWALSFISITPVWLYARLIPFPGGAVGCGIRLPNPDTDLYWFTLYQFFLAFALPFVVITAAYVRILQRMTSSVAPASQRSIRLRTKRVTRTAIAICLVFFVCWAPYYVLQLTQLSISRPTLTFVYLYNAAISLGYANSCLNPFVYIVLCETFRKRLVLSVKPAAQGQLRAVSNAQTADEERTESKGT

| SMILES | pIC50 [1] | pIC50 [2] | further results |
| --- | --- | --- | --- |
| Nc1ccc2cccc(O)c2n1 | < 5.70 | – | – |
| CC(C)COc1cccc2ccc(N)nc12 | < 5.70 | – | – |
| CC(CC(C)(C)C)Oc1cccc2ccc(N3CCCCC3)nc12 (stereo not drawn) | < 5.70 | < 5.00 | – |
| COCCOCCOc1cccc2ccc(N)nc12 | < 5.70 | – | – |
| CC1CCC(Oc2cccc3ccc(N)nc23)C1 (stereo not drawn) | 6.08 | – | – |
| CC1CCCC(Oc2cccc3ccc(N)nc23)C1 (stereo not drawn) | 6.19 | – | – |
| CCOCC(C)Oc1cccc2ccc(N)nc12 (stereo not drawn) | 5.97 | – | – |
| CSCCOc1cccc2ccc(N)nc12 | < 5.70 | – | – |
| CC(CC(C)(C)C)Oc1cccc2ccc(NCC3CC3)nc12 (stereo not drawn) | < 5.70 | < 5.00 | – |
| Nc1ccc2cccc(OCCC3CCCCC3)c2n1 | 6.09 | – | – |
| Nc1ccc2cccc(OC3CCCCCC3)c2n1 | 6.86 | 5.46 | – |
| CNc1ccc2cccc(OC(C)CC(C)(C)C)c2n1 (stereo not drawn) | 6.51 | 5.22 | – |
| CC(C)CCOc1cccc2ccc(N)nc12 | 6.21 | – | – |
| CC(CC(C)(C)C)Oc1cccc2ccc(NCc3ccc(-c4ccccc4Cl)o3)nc12 (stereo not drawn) | 7.22 | 6.28 | – |
| CC1CCC(Oc2cccc3ccc(N)nc23)CC1 (stereo not drawn) | 6.46 | – | – |
| CC(CC(C)(C)C)Oc1cccc2ccc(N(C)C)nc12 (stereo not drawn) | < 5.70 | < 5.00 | – |
| Nc1ccc2cccc(OCC3CCC3)c2n1 | 6.36 | – | – |
| CCOCCOc1cccc2ccc(N)nc12 | < 5.70 | – | – |
| CC(C)C(C)Oc1cccc2ccc(N)nc12 (stereo not drawn) | 6.70 | – | – |

| SMILES | pIC50 [1] | pIC50 [2] | further results |
| --- | --- | --- | --- |
| CCC(CC)Oc1cccc2ccc(N)nc12 | 6.49 | – | – |
| COCCOc1cccc2ccc(N)nc12 | < 5.70 | – | – |
| Nc1ccc2cccc(OC3CCCCC3)c2n1 | 6.44 | – | – |
| CCCCCOc1cccc2ccc(N)nc12 | 6.24 | – | – |
| CC1CC1COc1cccc2ccc(N)nc12 (stereo not drawn) | 5.79 | – | – |
| CCCCOc1cccc2ccc(N)nc12 | 6.10 | – | – |
| Nc1ccc2cccc(OCC3CC4CCC3C4)c2n1 (stereo not drawn) | 6.86 | 5.76 | – |
| Nc1ccc2cccc(OCC3CCCC3)c2n1 | 7.28 | 5.64 | – |
| Nc1ccc2cccc(OCC3CCCO3)c2n1 (stereo not drawn) | < 5.70 | – | – |
| CCC(C)Oc1cccc2ccc(N)nc12 (stereo not drawn) | 6.76 | 5.27 | – |
| Nc1ccc2cccc(OCCC3CC3)c2n1 | 6.31 | – | – |
| Nc1ccc2cccc(OCCC(F)(F)F)c2n1 | 6.14 | – | – |
| CCCCCCOc1cccc2ccc(N)nc12 | 6.09 | – | – |
| CCCC(C)Oc1cccc2ccc(N)nc12 (stereo not drawn) | 6.98 | 6.07 | – |
| CC(COC(C)(C)C)Oc1cccc2ccc(N)nc12 (stereo not drawn) | 6.51 | – | – |
| COC(C)(C)CCOc1cccc2ccc(N)nc12 | 6.88 | 5.33 | – |
| Nc1ccc2cccc(OC3CCC3)c2n1 | < 5.70 | – | – |
| CC1CCCCC1Oc1cccc2ccc(N)nc12 (stereo not drawn) | 7.49 | 5.88 | – |
| CCC(C)COc1cccc2ccc(N)nc12 (stereo not drawn) | 7.44 | – | – |

| SMILES | pIC50 [1] | pIC50 [2] | further results |
| --- | --- | --- | --- |
| COCC(C)Oc1cccc2ccc(N)nc12 (stereo not drawn) | 6.22 | – | – |
| Nc1ccc2cccc(OC3CCCC3)c2n1 | < 5.70 | – | – |
| CC(C)=CCOc1cccc2ccc(N)nc12 | < 5.70 | – | – |
| CC(C)OCCOc1cccc2ccc(N)nc12 | < 5.70 | – | – |
| Nc1ccc2cccc(OCC3CCOC3)c2n1 (stereo not drawn) | 6.94 | 5.20 | – |
| CC(C)(C)CCOc1cccc2ccc(N)nc12 | 6.70 | – | – |
| Nc1ccc2cccc(OCC3CCCCC3)c2n1 | 7.05 | 5.77 | – |
| CC(CC(C)(C)C)Oc1cccc2cccnc12 (stereo not drawn) | < 5.70 | < 5.00 | – |
| CC(C)Oc1cccc2ccc(N)nc12 | 6.36 | – | – |
| CCC(CC)C(C)Oc1cccc2ccc(N)nc12 (stereo not drawn) | 6.72 | 5.89 | – |
| Nc1ccc2cccc(OCC3CC3)c2n1 | < 5.70 | – | – |
| CCC#CCOc1cccc2ccc(N)nc12 | < 5.70 | – | – |
| CC#CCCOc1cccc2ccc(N)nc12 | < 5.70 | – | – |
| CCCOc1cccc2ccc(N)nc12 | 5.96 | – | – |
| CC(CC(C)(C)C)Oc1cccc2ccc(N3CCCC3)nc12 (stereo not drawn) | < 5.70 | < 5.00 | – |
| COc1cccc2ccc(N)nc12 | 5.80 | – | – |
| CC(CC(C)(C)C)Oc1cccc2ccc(N)nc12 (single isomer, unassigned) | 7.70 | 7.05 | half-life [3]: 2.3 h; half-life [4]: 1.9 h; AUC [5]: 247 ng·h/mL; AUC [6]: 1030 ng·h/mL; Cmax [7]: 127 ng/mL; Cmax [8]: 595 ng/mL |
| CC(CC(C)(C)C)Oc1cccc2ccc(N)nc12 (single isomer, unassigned; (+)) | 6.26 | 5.35 | – |
| CC(CC(C)(C)C)Oc1cccc2ccc(N)nc12 (stereo in doubt; 19) | 7.39 | 6.68 | – |
